Reference: US11014908B2, “Chemical compounds” (Pfizer Inc., priority 2018, dated 2021)

Legend:
[1] = molecular target: T1, purified sickle cell hemoglobin (HbS) (Homo sapiens, UniProt P68871+P69905, E7V); test: Binding affinity to purified HbS by Surface Plasmon Resonance (SPR); details: crosslinked biotinylated HbS, 1:1 binding model
T1 construct: HbS was obtained from the blood of homozygous S/S patients; from tissue; host or cells: red blood cells of homozygous S/S patients
Summary of the method: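 Patient-derived HbS, purified and crosslinked between beta subunits (Lys82-Lys82), biotinylated and captured on streptavidin sensor at 4000–5000 RU. Running buffer 100 mM potassium phosphate pH 7.5, 1 mM EDTA, 0.1 mg/mL BSA, 1% DMSO; 2 min association, ≥5 min dissociation, ≥4 concentrations; Kd from 1:1 model fit.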

HbS = molecular target: T2, HbS (Homo sapiens, UniProt P68871+P69905, E7V); test: HbS polymerization assay (delay time); format: biochemical; details: 0.15 mM HbS, n=3, vs DMSO; for Increase in DT for 25% HbS Occ: 0.075 mM compound
T2 construct: HbS was obtained from the blood of homozygous S/S patients; from tissue; host or cells: red blood cells of homozygous S/S patients
Source text: This assay is used to determine the degree of inhibition of polymerization of HbS by compounds of the invention at varying degrees of HbS occupancy. The method used for the assay was adapted from that described in He and Russell (He, Z. and J. E. Russell, “A high-Throughput Microplate Method for Assessing Aggregation of Deoxygenated Hemoglobin S Heterotetramers in Vitro”, Anal Biochem 306(2): 349-352 (2002)).
Purified HbS was exchanged into 1.25 M potassium phosphate, pH=7.4 and concentrated to 1.1 mM. The hemoglobin concentration was fixed at 0.15 mM, and the HbS was diluted to the appropriate concentration using 1.25 M potassium phosphate, pH=7.4. The compound of the invention was added to 0.15 mM HbS in the following concentrations: […], 0.075 mM (25%) and 0.15 mM (50%). As these compounds are ditopic binders, the concentration was doubled to calculate the % coverage, ie. 0.15*0.5=0.075*2=0.15. DMSO concentrations were matched for all compound concentrations, as well as no-compound control, and HbA. Following incubation, 33.5 μL of HbS solution was added to each well of a Costar 96-well half area plate. To induce deoxygenation, 16.5 μL of 1 M sodium dithionite, prepared in 1.25 M potassium phosphate, was added to each well for a final assay concentration of 330 mM, and mixed thoroughly. Fifty μL of mineral oil was overlaid over the solution in each well to prevent reoxygenation, and the plate was placed at 4° C. for five minutes. Following cold incubation, the plates were placed in a spectrophotometer that had been equilibrated at 37° C., to initiate the polymerization process (temperature jump). The reaction was monitored at 700 nm for 40 minutes, with data points collected every 30 seconds. Four wells were used for each condition, and the data averaged at every point for analysis. Data was analyzed using Graph Pad Prism, and the data was fit to a Boltzman sigmoidal equation, in which V50 (t1/2) was taken as the delay time. The percent change was calculated using the DMSO as the initial delay time. Error in percent change was compounded using the V50 errors generated when fit to the Boltzman sigmoidal equation.
Delay in HbS polymerization, as measured by increasing delay time as a function of % HbS occupancy (% HbS Occ), is reported in Table 5 below as the increase in delay time (DT) for 10%, 25% and 50% HbS occupancy (n=3).

Hb in mouse whole blood = test: Whole blood oxygen affinity assay (Hemox analyzer), mouse blood; details: 1 mM compound, 1 hour at 25 C, relative to DMSO
Source text: Whole Blood Oxygen Affinity Assay
Oxygen affinity is a marker of the ability of Hb to bind and release oxygen in solution. It can be determined in whole blood by measuring the percentage of oxygenated and deoxygenated Hb present at a given oxygen concentration. Oxygen affinity is expressed as the p50, the partial pressure of oxygen at which 50% of the Hb in solution has oxygen bound, or the p20, the partial pressure of oxygen at which 20% of the Hb in solution has oxygen bound.
To determine the effects of compounds of the invention on oxygen affinity the p50 and p20 were measured in human, dog, and mouse whole blood using a Hemeox Analyzer (TCS Scientific). The blood was spiked with a compound of the invention to a concentration of 1 mM and incubated for 1 hour at 25 C with constant rotation. A concentration of 1 mM of compound was selected to approximate 20% hemoglobin occupancy in whole blood. Controls with the same concentration of DMSO, but no compound were incubated in the same way at the same time. Following incubation, samples were immediately assayed for oxygen affinity using the Hemox analyzer. […] Once samples had reached an pO2 of >150 torr, the measurement was initiated by switching to N2, and the percent oxyhemoglobin as a function of partial pressure was recorded. The p20 and p50 of each sample were recorded from the instrument readout. […]

| SMILES | Kd [1] | Increase in DT for 25% HbS Occ (HbS) | Increase in DT for 10% HbS Occ (HbS; 0.03 mM compound) | Increase in DT for 50% HbS Occ (HbS; 0.15 mM compound) | Reduction in p20 (%) Mouse (Hb in mouse whole blood) | Reduction in p50 (%) Mouse (Hb in mouse whole blood) |
| --- | --- | --- | --- | --- | --- | --- |
| C[C@H](Oc1cc2cc(F)cc(F)c2nc1N)c1cc(C(=O)O)ccc1-n1cccn1 [Example 21, 3-{(1S)-1-[(2-amino-6,8-difluoroquinolin-3-yl)oxy]ethyl}-4-(1H-pyrazol-1-yl)benzoic Acid] | 37 nM | 64 ± 6% |  |  |  |  |
| C[C@H](Oc1cc2cc(F)ccc2nc1N)c1nc(O)ccc1-n1cccn1 [Example 58, 6-{(1S)-1-[(2-amino-6-fluoroquinolin-3-yl)oxy]ethyl}-5-(1H-pyrazol-1-yl)pyridin-2-ol] | 34 nM | 70 ± 8% | 18 ± 5% | 74 ± 21% | 11 ± 2% | 5 ± 3% |
